Laboratory results reported in patent US20250002475A1 (EPICS THERAPEUTICS, priority 2023, published 2025).

biological target: T1, recombinant METTL3/METTL14 complex (Homo sapiens, UniProt Q86U44); experiment: METTL3/14 Scintillation Proximity Assay (SPA), RNA methyltransferase activity; format: biochemical; conditions: 5.31 nM METTL3/14 complex, 250 nM RNA substrate, 1 μM 3H-SAM, 90 min; for compounds marked * best of the two separated forms
T1 construct: purchased Active Motif 311970; host or cells: Sf9 cells
T1 sequence (Q86U44 whole entry): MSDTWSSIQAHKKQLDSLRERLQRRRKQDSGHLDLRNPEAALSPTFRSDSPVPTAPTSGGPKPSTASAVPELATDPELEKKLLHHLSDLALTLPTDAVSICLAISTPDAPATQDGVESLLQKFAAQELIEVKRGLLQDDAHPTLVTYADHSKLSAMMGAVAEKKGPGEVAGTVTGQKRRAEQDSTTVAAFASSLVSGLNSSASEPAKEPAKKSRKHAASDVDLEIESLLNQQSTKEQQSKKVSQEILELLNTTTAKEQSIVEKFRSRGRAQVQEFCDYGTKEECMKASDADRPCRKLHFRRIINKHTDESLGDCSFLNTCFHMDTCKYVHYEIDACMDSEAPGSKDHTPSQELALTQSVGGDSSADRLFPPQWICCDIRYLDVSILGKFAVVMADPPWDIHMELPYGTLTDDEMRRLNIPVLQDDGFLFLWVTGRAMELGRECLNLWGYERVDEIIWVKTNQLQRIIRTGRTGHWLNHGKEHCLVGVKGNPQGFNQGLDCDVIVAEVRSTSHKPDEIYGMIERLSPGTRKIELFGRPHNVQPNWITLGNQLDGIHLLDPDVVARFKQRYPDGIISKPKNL
T1 sequence (Q9HCE5 whole entry partner): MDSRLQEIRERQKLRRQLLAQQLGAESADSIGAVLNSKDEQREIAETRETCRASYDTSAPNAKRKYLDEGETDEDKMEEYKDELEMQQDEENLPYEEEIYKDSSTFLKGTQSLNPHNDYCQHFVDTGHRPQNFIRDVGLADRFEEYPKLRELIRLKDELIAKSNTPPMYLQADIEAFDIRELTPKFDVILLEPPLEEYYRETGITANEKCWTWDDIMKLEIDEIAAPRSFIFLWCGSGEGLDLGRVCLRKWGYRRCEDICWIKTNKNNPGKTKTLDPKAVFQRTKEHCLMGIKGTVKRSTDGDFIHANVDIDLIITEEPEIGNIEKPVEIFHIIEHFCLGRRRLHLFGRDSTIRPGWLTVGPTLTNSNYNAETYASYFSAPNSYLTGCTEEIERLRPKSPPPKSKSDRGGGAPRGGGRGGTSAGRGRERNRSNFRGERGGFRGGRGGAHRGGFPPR

Row | IC50 | Compound
1 | ≤ 50 nM | CC(C(=O)Nc1cncc(N2CCCC2)n1)c1ccc(N2CCC[C@@H](NCC3CCC3)C2)cc1 (single isomer, unassigned) [Compound 294]
2 | ≤ 50 nM | Cc1cc(N2CCC[C@@H](NCC3CC3)C2)cnc1C(C)n1cc(-c2cncc(C3CC3)c2)nn1 (single isomer, unassigned) [Compound 318]
3 | 50 to 500 nM | O=C(NCc1ccc(N2CCC[C@@H](NCC3CC3)C2)nn1)c1cc(=O)n2ccccc2n1 [Compound 016, (R)-N-((6-(3-((cyclopropylmethyl)amino)piperidin-1-yl)pyridazin-3-yl)methyl)-4-oxo-4H-pyrido[1,2-a]pyrimidine-2-carboxamide]
4 | 50 to 500 nM | O=c1[nH]c(-c2cn(Cc3ccc(N4CCC[C@@H](NCC5CCC5)C4)nn3)nn2)nc2ccccc12 [Compound 029, (R)-2-(1-((6-(3-((cyclobutylmethyl)amino)piperidin-1-yl)pyridazin-3-yl)methyl)-1H-1,2,3-triazol-4-yl)quinazolin-4(3H)-one]
5 | ≤ 50 nM | O=c1[nH]c(-c2cn(Cc3ccc(N4CCC[C@@H](NCC5CCC5)C4)nn3)nn2)cc2ccccc12 [Compound 048, (R)-3-(1-((6-(3-((cyclobutylmethyl)amino)piperidin-1-yl)pyridazin-3-yl)methyl)-1H-1,2,3-triazol-4-yl)isoquinolin-1(2H)-one]
6 | ≤ 50 nM | O=C(NCc1ccc(N2CCC[C@@H](NCC3CCC3)C2)nc1)c1cc(=O)n2ccccc2n1 [Compound 061, (R)-N-((6-(3-((cyclobutylmethyl)amino)piperidin-1-yl)pyridin-3-yl)methyl)-4-oxo-4H-pyrido[1,2-a]pyrimidine-2-carboxamide]
7 | ≤ 50 nM | O=C(NCc1ccc(N2CCC[C@@H](NCC3CCC3)C2)cc1)c1cc(=O)n2ccccc2n1 [Compound 070, (R)-N-(4-(3-((cyclobutylmethyl)amino)piperidin-1-yl)benzyl)-4-oxo-4H-pyrido[1,2-a]pyrimidine-2-carboxamide]
8 | 50 to 500 nM | CC(NC(=O)c1cc(=O)n2ccccc2n1)c1ccc(N2CCC[C@@H](NCC3CCC3)C2)nc1 (stereo partly drawn) [Compound 072, N-(1-(6-((R)-3-((cyclobutylmethyl)amino)piperidin-1-yl)pyridin-3-yl)ethyl)-4-oxo-4H-pyrido[1,2-a]pyrimidine-2-carboxamide]
9 | ≤ 50 nM | C[C@H](NC(=O)c1cc(=O)n2ccccc2n1)c1ccc(N2CCC[C@@H](NCC3CCC3)C2)cc1 [Compound 074, N-((S)-1-(4-((R)-3-((cyclobutylmethyl)amino)piperidin-1-yl)phenyl)ethyl)-4-oxo-4H-pyrido[1,2-a]pyrimidine-2-carboxamide]
10 | ≤ 50 nM | CC(n1cc(-c2cccnc2)nn1)n1ccc(N2CCC[C@@H](NCC3CCC3)C2)cc1=O (stereo partly drawn) [Compound 079, 4-((R)-3-((cyclobutylmethyl)amino)piperidin-1-yl)-1-(1-(4-(pyridin-3-yl)-1H-1,2,3-triazol-1-yl)ethyl)pyridin-2(1H)-one]
11 | ≤ 50 nM | CC(c1ccc(N2CCC[C@@H](NCC3CCC3)C2)nn1)n1cc(-c2cc(=O)n3ccccc3n2)nn1 (stereo partly drawn) [Compound 089, 2-(1-(1-(6-((R)-3-((cyclobutylmethyl)amino)piperidin-1-yl)pyridazin-3-yl)ethyl)-1H-1,2,3-triazol-4-yl)-4H-pyrido[1,2-a]pyrimidin-4-one]
12 | ≤ 50 nM | CC(c1ccc(N2CCC[C@@H](NCC3CCC3)C2)nn1)n1cc(-c2cc(=O)n3cc(Cl)ccc3n2)nn1 (stereo partly drawn) [Compound 090, 7-chloro-2-(1-(1-(6-((R)-3-((cyclobutylmethyl)amino)piperidin-1-yl)pyridazin-3-yl)ethyl)-1H-1,2,3-triazol-4-yl)-4H-pyrido[1,2-a]pyrimidin-4-one]
13 | ≤ 50 nM | CC(n1cc(-c2cncc(F)c2)nn1)n1ccc(N2CCC[C@@H](NCC3CCC3)C2)cc1=O (stereo partly drawn) [Compound 094, 4-((R)-3-((cyclobutylmethyl)amino)piperidin-1-yl)-1-(1-(4-(5-fluoropyridin-3-yl)-1H-1,2,3-triazol-1-yl)ethyl)pyridin-2(1H)-one]
14 | 50 to 500 nM | CC(NC(=O)c1cc(=O)n2ccccc2n1)c1ccc(N2CCC[C@@H](NCC3CCC3)C2)cc1 (stereo partly drawn) [Compound 100, N-(1-(4-((R)-3-((cyclobutylmethyl)amino)piperidin-1-yl)phenyl)ethyl)-4-oxo-4H-pyrido[1,2-a]pyrimidine-2-carboxamide]
15 | ≤ 50 nM | CC(c1ccc(N2CCC[C@@H](NCC3CCC3)C2)cc1)n1cc(-c2cc(=O)n3ccccc3n2)nn1 (stereo partly drawn) [Compound 102]
16 | 50 to 500 nM | COc1cc(-c2cn(C(C)n3ccc(N4CCC[C@@H](NCC5CCC5)C4)cc3=O)nn2)cnc1C (stereo partly drawn) [Compound 104, 4-((R)-3-((cyclobutylmethyl)amino)piperidin-1-yl)-1-(1-(4-(5-methoxy-6-methylpyridin-3-yl)-1H-1,2,3-triazol-1-yl)ethyl)pyridin-2(1H)-one]
17 | ≤ 50 nM | COc1cncc(-c2cn(C(C)n3ccc(N4CCC[C@@H](NCC5CCC5)C4)cc3=O)nn2)c1C (stereo partly drawn) [Compound 108, 4-((R)-3-((cyclobutylmethyl)amino)piperidin-1-yl)-1-(1-(4-(5-methoxy-4-methylpyridin-3-yl)-1H-1,2,3-triazol-1-yl)ethyl)pyridin-2(1H)-one]

Further lines, the compound ahead of its results:

Row | Compound | IC50
18 | CC(C(=O)Nc1cncc(N2CCCC2)c1)c1ccc(N2CCC[C@@H](NCC3CCC3)C2)cn1 (single isomer, unassigned) [Compound 264] | ≤ 50 nM
19 | CC(n1cnc(-c2cncc(N(C)C)c2)c1)n1ccc(N2CCC[C@@H](NCC3CC3)C2)cc1=O (single isomer, unassigned) [Compound 266] | ≤ 50 nM
20 | COc1cncc(C(=O)NCc2ccc(N3CCC[C@@H](NCC4CCC4)C3)nn2)c1 [Compound 004, (R)-N-((6-(3-((cyclobutylmethyl)amino)piperidin-1-yl)pyridazin-3-yl)methyl)-5-methoxynicotinamide] | 500 to 3500 nM
21 | COc1cc(C(=O)NCc2ccc(N3CCC[C@@H](NCC4CCC4)C3)nn2)c2cn[nH]c2c1 [Compound 005, (R)-N-((6-(3-((cyclobutylmethyl)amino)piperidin-1-yl)pyridazin-3-yl)methyl)-6-methoxy-1H-indazole-4-carboxamide] | 50 to 500 nM
22 | O=C(NCc1ccc(N2CCCC(N3CCC4(CC3)CC4)C2)nn1)c1cc(=O)n2ccccc2n1 (stereo not drawn) [Compound 014, N-((6-(3-(6-azaspiro[2.5]octan-6-yl)piperidin-1-yl)pyridazin-3-yl)methyl)-4-oxo-4H-pyrido[1,2-a]pyrimidine-2-carboxamide] | 50 to 500 nM
23 | N#Cc1cncc(-c2cn(Cc3ccc(N4CCC[C@@H](NCC5CCC5)C4)nn3)nn2)c1 [Compound 021, (R)-5-(1-((6-(3-((cyclobutylmethyl)amino)piperidin-1-yl)pyridazin-3-yl)methyl)-1H-1,2,3-triazol-4-yl)nicotinonitrile] | 50 to 500 nM
24 | c1cc(N2CCC[C@@H](NCC3CCC3)C2)nnc1Cn1cc(-c2csc3cncn23)nn1 [Compound 034, (R)-N-(cyclobutylmethyl)-1-(6-((4-(imidazo[5,1-b]thiazol-3-yl)-1H-1,2,3-triazol-1-yl)methyl)pyridazin-3-yl)piperidin-3-amine] | ≤ 50 nM
25 | COc1cc(-c2cn(Cc3ccc(N4CCCC(N5CC6(CCC6)C5)C4)nn3)nn2)c2cn[nH]c2c1 (stereo not drawn) [Compound 035, 4-(1-((6-(3-(2-azaspiro[3.3]heptan-2-yl)piperidin-1-yl)pyridazin-3-yl)methyl)-1H-1,2,3-triazol-4-yl)-6-methoxy-1H-indazole] | ≤ 50 nM
26 | COc1cncc(-c2cn(Cc3ccc(N4C[C@H](NCC5CCC5)CC[C@@H]4C)nn3)nn2)c1 [Compound 038, (3R,6S)-N-(cyclobutylmethyl)-1-(6-((4-(5-methoxypyridin-3-yl)-1H-1,2,3-triazol-1-yl)methyl)pyridazin-3-yl)-6-methylpiperidin-3-amine] | 50 to 500 nM
27 | COc1cc(-c2cn(Cc3ncc(N4CCCC(NCC5CCC5)C4)s3)nn2)c2cn[nH]c2c1 (stereo not drawn) [Compound 049, N-(cyclobutylmethyl)-1-(2-((4-(6-methoxy-1H-indazol-4-yl)-1H-1,2,3-triazol-1-yl)methyl)thiazol-5-yl)piperidin-3-amine] | ≤ 50 nM
28 | COc1cncc(-c2cn(Cc3ccc(N4CCCC(C)(NCC5CCC5)C4)nn3)nn2)c1 (stereo not drawn) [Compound 053, N-(cyclobutylmethyl)-1-(6-((4-(5-methoxypyridin-3-yl)-1H-1,2,3-triazol-1-yl)methyl)pyridazin-3-yl)-3-methylpiperidin-3-amine] | 50 to 500 nM
29 | COc1cc(-c2cn(Cn3cc(F)c(N4CCCC(NCC5CCC5)C4)cc3=O)nn2)c2cn[nH]c2c1 (stereo not drawn) [Compound 054, 4-(3-((cyclobutylmethyl)amino)piperidin-1-yl)-5-fluoro-1-((4-(6-methoxy-1H-indazol-4-yl)-1H-1,2,3-triazol-1-yl)methyl)pyridin-2(1H)-one] | 500 to 3500 nM
30 | COc1cncc(-c2cn(Cc3ccc(N4CCC(F)(F)C(NCC5CCC5)C4)nn3)nn2)c1 (stereo not drawn) [Compound 059, N-(cyclobutylmethyl)-4,4-difluoro-1-(6-((4-(5-methoxypyridin-3-yl)-1H-1,2,3-triazol-1-yl)methyl)pyridazin-3-yl)piperidin-3-amine] | 50 to 500 nM
31 | COc1cncc(-c2cn(Cn3ncc(N4CCC[C@@H](NCC5CCC5)C4)cc3=O)nn2)c1 [Compound 062, (R)-5-(3-((cyclobutylmethyl)amino)piperidin-1-yl)-2-((4-(5-methoxypyridin-3-yl)-1H-1,2,3-triazol-1-yl)methyl)pyridazin-3(2H)-one] | ≤ 50 nM
32 | COc1cncc(-c2nnc(Cc3ccc(N4CCC[C@@H](NCC5CCC5)C4)nn3)[nH]2)c1 [Compound 069, (R)-N-(cyclobutylmethyl)-1-(6-((5-(5-methoxypyridin-3-yl)-4H-1,2,4-triazol-3-yl)methyl)pyridazin-3-yl)piperidin-3-amine] | ≤ 50 nM
33 | COc1cncc(-c2cn(Cc3ccc(N4CCCCC(NCC5CCC5)C4)nn3)nn2)c1 (stereo not drawn) [Compound 101, N-(cyclobutylmethyl)-1-(6-((4-(5-methoxypyridin-3-yl)-1H-1,2,3-triazol-1-yl)methyl)pyridazin-3-yl)azepan-3-amine] | 50 to 500 nM
